Assay results: ChEMBL document CHEMBL5512688 (J Med Chem, 2024)

Tests used:
A-427 [1] = assay: Induction of cell cycle arrest in human A-427 cells assessed as accumulation of cells at G2/M phase at 400 nM measured for 48 hrs by flow cytometry analysis (reference value: 10.9 %); format: functional
[2] = Metabolic stability in mouse liver microsome assessed as parent compound remaining measured at 60 mins by LCMS/MS analysis; format: ADME; conditions: liver microsomes, read-out: Stability
[3] = molecular target: T1, Mitogen-activated protein kinase kinase kinase 19 (Homo sapiens) (UniProt Q56UN5); assay: Inhibition of MAP3K19 (unknown origin) at 1 uM relative to control
T1 sequence (whole entry): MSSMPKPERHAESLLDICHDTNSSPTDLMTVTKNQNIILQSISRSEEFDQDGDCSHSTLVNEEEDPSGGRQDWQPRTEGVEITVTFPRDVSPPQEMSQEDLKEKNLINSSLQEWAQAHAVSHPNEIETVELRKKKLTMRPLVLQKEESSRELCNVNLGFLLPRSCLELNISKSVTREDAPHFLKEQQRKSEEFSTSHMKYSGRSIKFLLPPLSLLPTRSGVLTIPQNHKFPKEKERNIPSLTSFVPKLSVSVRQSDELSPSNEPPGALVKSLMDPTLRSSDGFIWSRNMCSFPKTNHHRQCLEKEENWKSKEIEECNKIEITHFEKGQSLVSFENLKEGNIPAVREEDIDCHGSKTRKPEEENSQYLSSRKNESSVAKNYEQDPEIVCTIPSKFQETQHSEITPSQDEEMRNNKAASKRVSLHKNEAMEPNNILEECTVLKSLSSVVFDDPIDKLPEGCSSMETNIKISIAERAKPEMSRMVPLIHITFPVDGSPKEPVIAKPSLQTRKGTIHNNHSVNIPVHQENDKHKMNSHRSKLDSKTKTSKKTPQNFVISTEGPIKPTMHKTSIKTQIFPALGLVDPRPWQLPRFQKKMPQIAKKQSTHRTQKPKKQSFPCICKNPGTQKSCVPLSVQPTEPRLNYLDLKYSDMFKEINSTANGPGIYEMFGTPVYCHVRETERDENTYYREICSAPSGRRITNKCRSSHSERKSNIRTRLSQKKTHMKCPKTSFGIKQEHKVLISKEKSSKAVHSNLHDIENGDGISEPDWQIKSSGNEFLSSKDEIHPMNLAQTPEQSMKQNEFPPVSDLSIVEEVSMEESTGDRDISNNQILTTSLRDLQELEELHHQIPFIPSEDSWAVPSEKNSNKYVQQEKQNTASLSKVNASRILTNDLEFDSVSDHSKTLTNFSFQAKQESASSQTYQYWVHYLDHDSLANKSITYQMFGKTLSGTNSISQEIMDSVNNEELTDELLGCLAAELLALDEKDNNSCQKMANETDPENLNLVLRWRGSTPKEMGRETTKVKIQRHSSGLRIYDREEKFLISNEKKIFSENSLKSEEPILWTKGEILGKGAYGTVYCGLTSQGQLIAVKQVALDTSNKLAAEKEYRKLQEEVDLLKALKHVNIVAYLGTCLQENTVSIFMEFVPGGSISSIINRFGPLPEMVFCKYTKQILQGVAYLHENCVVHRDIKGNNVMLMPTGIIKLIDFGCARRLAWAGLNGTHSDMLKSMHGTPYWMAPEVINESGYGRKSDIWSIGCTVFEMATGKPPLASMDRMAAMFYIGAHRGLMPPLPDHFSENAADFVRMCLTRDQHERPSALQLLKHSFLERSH

A-427 [4] = assay: Induction of cell cycle arrest in human A-427 cells assessed as accumulation of cells at G2/M phase at 50 nM measured for 48 hrs by flow cytometry analysis (reference value: 10.9 %); format: functional
A-427 [5] = assay: Induction of apoptosis in human A-427 cells assessed as necrotic cells at 400 nM measured for 48 hrs by Annexin V/PI double staining based flow cytometry analysis (reference value: 0.098%); format: functional
A-427 [6] = assay: Induction of cell cycle arrest in human A-427 cells assessed as accumulation of cells at G0/G1 phase at 400 nM measured for 48 hrs by flow cytometry analysis (reference value: 49.5%); format: functional
A-427 [7] = assay: Induction of apoptosis in human A-427 cells assessed as late apoptotic cells at 200 nM measured for 48 hrs by Annexin V/PI double staining based flow cytometry analysis (reference value: 0.21%); format: functional
Wee1-like protein kinase [8] = molecular target: T2, Wee1-like protein kinase (Homo sapiens, UniProt P30291); assay: Inhibition of Wee1 (unknown origin) at 1 uM relative to control
Target sequence in this assay (P30291 whole entry, looked up): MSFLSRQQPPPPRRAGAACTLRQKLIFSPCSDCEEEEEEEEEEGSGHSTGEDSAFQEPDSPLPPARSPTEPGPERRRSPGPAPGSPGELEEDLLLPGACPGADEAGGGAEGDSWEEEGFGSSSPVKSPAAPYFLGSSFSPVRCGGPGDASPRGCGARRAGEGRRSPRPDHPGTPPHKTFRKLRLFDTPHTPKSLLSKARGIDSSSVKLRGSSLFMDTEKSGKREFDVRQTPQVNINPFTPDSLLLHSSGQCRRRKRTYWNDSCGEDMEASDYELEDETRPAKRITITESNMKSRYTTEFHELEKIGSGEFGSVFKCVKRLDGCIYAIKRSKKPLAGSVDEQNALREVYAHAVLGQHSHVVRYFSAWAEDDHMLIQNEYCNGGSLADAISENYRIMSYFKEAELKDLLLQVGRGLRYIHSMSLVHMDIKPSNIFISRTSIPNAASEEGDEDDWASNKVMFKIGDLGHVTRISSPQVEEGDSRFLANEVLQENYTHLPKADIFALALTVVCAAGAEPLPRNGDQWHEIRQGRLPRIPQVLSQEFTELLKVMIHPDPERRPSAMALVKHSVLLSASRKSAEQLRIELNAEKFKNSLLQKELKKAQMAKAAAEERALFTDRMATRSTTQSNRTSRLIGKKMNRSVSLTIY

[9] = Half life in ICR mouse at 60 mg/kg, IG measured upto 24 hrs by LC-MS/MS analysis; format: ADME, organism-based; conditions: in vivo, po
A-427 [10] = assay: Induction of apoptosis in human A-427 cells assessed as early apoptotic cells at 400 nM measured for 48 hrs by Annexin V/PI double staining based flow cytometry analysis (reference value: 1.96%); format: functional
A-427 [11] = assay: Induction of apoptosis in human A-427 cells assessed as early apoptotic cells at 200 nM measured for 48 hrs by Annexin V/PI double staining based flow cytometry analysis (reference value: 1.96%); format: functional
A-427 [12] = assay: Induction of apoptosis in human A-427 cells assessed as early apoptotic cells at 800 nM measured for 48 hrs by Annexin V/PI double staining based flow cytometry analysis (reference value: 1.96%); format: functional
A-427 [13] = assay: Induction of cell cycle arrest in human A-427 cells assessed as accumulation of cells at G2/M phase at 200 nM measured for 48 hrs by flow cytometry analysis (reference value: 10.9 %); format: functional
A-427 [14] = assay: Induction of cell cycle arrest in human A-427 cells assessed as accumulation of cells at G0/G1 phase at 50 nM measured for 48 hrs by flow cytometry analysis (reference value: 49.5%); format: functional
A-427 [15] = assay: Induction of cell cycle arrest in human A-427 cells assessed as accumulation of cells at S phase at 50 nM measured for 48 hrs by flow cytometry analysis (reference value: 4 %); format: functional
[16] = Bioavailability in ICR mouse at 60 mg/kg, IG measured upto 24 hrs by LC-MS/MS analysis; format: ADME, organism-based; conditions: in vivo, po
A-427 [17] = assay: Induction of apoptosis in human A-427 cells assessed as viable cells at 800 nM measured for 48 hrs by Annexin V/PI double staining based flow cytometry analysis (reference value: 97.7%); format: functional; conditions: read-out: Activity
Wee1-like protein kinase [18] = molecular target: T2, Wee1-like protein kinase; assay: Inhibition of human Wee1 (215 to 647 residues) using polyornithine/tyrosine (4:1) as substrate incubated for 5 mins in presence of ATP by micro beta plate reader analysis
Target sequence in this assay (P30291 whole entry): as the sequence (P30291 whole entry, looked up) above

LoVo = assay: Antiproliferative activity against human LoVo cells assessed as inhibition of cell growth incubated for 72 hrs by CCK-8 method; format: functional, cell-based
A-427 [19] = assay: Antiproliferative activity against human A-427 cells assessed as inhibition of cell growth incubated for 72 hrs by CCK-8 assay; format: functional, cell-based; conditions: A-427, 72 h
A-427 [20] = assay: Induction of cell cycle arrest in human A-427 cells assessed as accumulation of cells at S phase at 200 nM measured for 48 hrs by flow cytometry analysis (reference value: 4 %); format: functional
A-427 [21] = assay: Induction of cell cycle arrest in human A-427 cells assessed as accumulation of cells at S phase at 400 nM measured for 48 hrs by flow cytometry analysis (reference value: 4 %); format: functional

C=CCn1c(=O)c2cnc(Nc3ccc(N4CCN(C)CC4)cc3)nc2n1-c1cccc(-c2cnccn2)n1
Activity (A-427 [1]): 9.32% | remaining at 1 h [2]: 33.9% | inhibition [3]: > 90% | Activity (A-427 [4]): 6.57% | Activity (A-427 [5]): 2.33% | Activity (A-427 [6]): 31.3% | Activity (A-427 [7]): 25.6% | inhibition (Wee1-like protein kinase [8]): 111% | half-life [9]: 5.94 h | Activity (A-427 [10]): 10.1% | Activity (A-427 [11]): 9.02% | Activity (A-427 [12]): 10.1% | Activity (A-427 [13]): 6.58% | Activity (A-427 [14]): 40.9% | Activity (A-427 [15]): 46.7% | bioavailability [16]: 61.5% | viability at 0.8 µM (A-427 [17]): 50.9% | IC50 (Wee1-like protein kinase [18]): 2.1 nM | IC50 (LoVo): 82 nM | IC50 (A-427 [19]): 84 nM | Activity (A-427 [20]): 59.1% | Activity (A-427 [21]): 59.1%
